This test deals with T1, firefly luciferase (FLuc) (Photinus pyralis, UniProt P08659).
T1 construct: purchased Sigma-Aldrich; host or cells: E. coli
In words: Inhibition assay of luciferase (purified recombinant enzyme, bioluminescence readout). The class given is biochemical. Particulars: n = 3; for IC50: sigmoidal fit, concentration series 100 µM to 13 nM and 300 µM to 0.41 nM; for Inhibition (%) of FLuc: compound concentration 10 µM; for Inhibition (%) of FLuc / inhibition at 10 µM: relative to DMSO vehicle control; for inhibition at 10 µM: read-out: Inhibition (%) of FLuc, compound concentration 10 µM. The procedure: 25 µL of luciferase protein (c = 0.6 µg/mL, Sigma-Aldrich, recombinant expressed in E.coli) in Trisbuffer (10 mM Tris, 10 mM KCl, 1 mM EGTA, 30% glycerol) pH7.4 were added to each well of a white 96 well plate (Brand). The compounds were added in 1 µL DMSO at various concentrations. After incubation of the enzyme with the compounds for 10 min at room temperature, 80 µL of FLuc buffer (25 mM glycylglycin, 4 mM EGTA, 15 mM MgSO4, 15 mM PPB) was added and the light signal was immediately measured using a multiplate reader (Clariostar, BMG) with a gain of 2500 and a measurement interval time of 2 s. Inhibition was calculated in relation to the control, enzyme treated with vehicle (DMSO).
OriginPro 2021b (64-bit) SR2 (9.8.5.212) (OriginLab) was used to determine the inhibition and IC50 values and prepare the figures. The IC50 values were calculated from the sigmoidal fit of the log scale concentration without fixing the parameters.
The inhibitory activity of all chalcones was evaluated at a concentration of 10 µM on purified recombinant firefly luciferase, as this concentration would also be used in the reporter gene assay to determine neurogenic activity.
To obtain the IC50 values and construct a concentration-response curve, chalcones were measured in the assay using a series of decreasing concentrations, ranging from 100 µM to 13 nM and from 300 µM to 0.41 nM.

T1 sequence (P08659 whole entry): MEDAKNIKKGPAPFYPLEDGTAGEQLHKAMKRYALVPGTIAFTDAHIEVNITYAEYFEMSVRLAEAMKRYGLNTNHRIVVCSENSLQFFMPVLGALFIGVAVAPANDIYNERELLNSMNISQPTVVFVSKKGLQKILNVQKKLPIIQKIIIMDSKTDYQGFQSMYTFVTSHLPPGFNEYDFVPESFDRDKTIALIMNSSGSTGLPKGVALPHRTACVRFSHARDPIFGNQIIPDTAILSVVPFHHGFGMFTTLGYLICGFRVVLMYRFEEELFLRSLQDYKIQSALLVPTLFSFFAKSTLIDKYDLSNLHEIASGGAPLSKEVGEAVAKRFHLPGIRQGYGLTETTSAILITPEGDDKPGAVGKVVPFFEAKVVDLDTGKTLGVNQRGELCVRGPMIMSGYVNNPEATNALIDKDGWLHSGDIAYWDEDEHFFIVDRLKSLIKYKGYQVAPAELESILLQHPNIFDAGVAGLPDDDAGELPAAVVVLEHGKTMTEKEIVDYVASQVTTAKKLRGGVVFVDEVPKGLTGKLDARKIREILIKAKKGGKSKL

Broadly, the IC50 is the concentration at which inhibition is half-maximal. Take `O=C(O)c1cccc(-c2noc(-c3ccccc3F)n2)c1` [Ataluren, reference compound]: the IC50 was found to be 0.11 µM.

`CC1(C)C=Cc2cc(C(=O)/C=C/c3ccc(O)cc3)ccc2O1` [Compound 2, (E)-1–(2,2dimethyl-2H-chromen-6-yl)-3–(4-hydroxyphenyl)prop-2-en-1-one]: the inhibition at 10 µM was determined as 30%. Also, the “Inhibition (%) of FLuc” value (10 µM) is listed as 32%. For the molecule `COc1cc2c(cc1C(=O)/C=C/c1ccc(O)cc1)C=CC(C)(C)O2` [Compound 3, (E)-3–(4-hydroxyphenyl)-1–(7-methoxy-2,2-dimethyl-2H-chromen-6-yl)prop-2-en-1-one], the inhibition at 10 µM is < 5%. Turning to `CC1(C)C=Cc2c(ccc(C(=O)/C=C/c3ccc(O)cc3)c2O)O1` [Compound 4, (E)-1–(5-hydroxy-2,2-dimethyl-2H-chromen-6-yl)-3–(4-hydroxyphenyl)prop-2-en-1-one], the inhibition at 10 µM was < 10%.

`CC1(C)C=Cc2cc(C(=O)/C=C/c3ccc(O)cc3)c(O)cc2O1` [Compound 5, (E)-1–(7-hydroxy-2,2-dimethyl-2H-chromen-6-yl)-3–(4-hydroxyphenyl)prop-2-en-1-one]: the inhibition at 10 µM is < 5%. Same read-out and setting: with `CC1(C)C=Cc2cc(C(=O)/C=C/c3ccc(O)cc3)ccc2N1` [Compound 6, (E)-1–(2,2-dimethyl-1,2-dihydroquinolin-6-yl)-3–(4-hydroxyphenyl)prop-2-en-1-one] the figure was 18%. On to `CC1(C)C=Cc2cc(C(=O)/C=C/c3ccc(N)cc3)ccc2O1` [Compound 8, (E)-3–(4-aminophenyl)-1–(2,2-dimethyl-2H-chromen-6-yl)prop-2-en-1-one], for which the “Inhibition (%) of FLuc” value is “comparable to that of the hydroxyl group”. The same measure, in the same setting: the entry for `CC1(C)C=Cc2cc(C(=O)/C=C/c3ccc(Cl)cc3)ccc2O1` [Compound 12, (E)-3–(4-chlorphenyl)-1–(2,2-dimethyl-2H-chromen-6-yl)prop-2-en-1-one] is “near-complete elimination of the inhibitory effect”; for `CC1(C)C=Cc2cc(C(=O)/C=C/c3ccc(C(F)(F)F)cc3)ccc2O1` [Compound 13, (E)-1–(2,2-dihmethyl-2H-chromen-6-yl)-3–(4-(trifluoromethyl)phenyl)prop-2-en-1-one] it is “near-complete elimination of the inhibitory effect”. Regarding `CC1(C)C=Cc2cc(C(=O)/C=C/c3ccccc3)ccc2O1` [Compound 14, (E)-1–(2,2-dimethyl-2H-chromen-6-yl)-3-phenylprop-2-en-1-one], the “Inhibition (%) of FLuc” value was “most pronounced inhibitory effect” and the 50% inhibitory concentration (IC50) was < 10 µM. Take `CC1(C)C=Cc2cc(C(=O)/C=C/c3cccc(O)c3O)ccc2O1` [Compound 18, (E)-3–(2,3-dihydroxyphenyl)-1–(2,2-dimethyl-2H-chromen-6-yl)prop-2-en-1-one]: the IC50 is < 10 µM. “(E)-1–(2,2-dimethyl-2H-thiochromen-6-yl)-3–(4-methoxyphenyl)prop-2-en-1-one [Compound 7]”: the “Inhibition (%) of FLuc” value is “less than 10%”. Turning to “(E)-1–(7-hydroxy-5-methoxy-2,2-dimethyl-2H-chromen-6-yl)-3–(4-hydroxyphenyl)prop-2-en-1-one [Compound 1]”, the “Inhibition (%) of FLuc” value is, setting by setting: (10 µM) “no inhibition”; (listed as xanthohumol C, 10 µM) “no inhibitory effect”.
